The values below come from US20230039836A1, “AROMATIC SULPHONAMIDES DERIVATIVES THAT INHIBITS PDI A3, THEIR SYNTHESIS AND USE” (Uniwersytet Jagiellonski, priority 2020, published 2023).

In brackets after ≈: the same amount, converted by molar mass.

The test system of assay [1] is Caco-2. Briefly: Sulforhodamine B antiproliferative assay, 72 h. It counts as cell-based, human. The conditions noted are these: Homo sapiens, Caco-2; normal (21% of oxygen), 72-hour exposition. In general terms: In SRB staining, fixed cells bind dye roughly in proportion to their protein.
Method: In the experiment, cells were seeded on 96-well plates (Sarstedt, Germany) in appropriate culture medium at a density of 10^5 cells/mL 24 h before adding the tested compounds. Cells were treated with each compound in four concentrations in the range 0.1-100 ug/mL. […] Briefly, cells were fixed with 50 µL/well of 50% (w/v) trichloroacetic acid (Avantor Performance Materials, Gliwice, Poland). After 1 h incubation, plates were washed several times with tap water and 50 µL of 0.4% (w/v) solution of sulforhodamine B (Sigma-Aldrich, Germany) in 1% (v/v) acetic acid (Avantor Performance Materials, Gliwice, Poland) was added to each well. After 30 min incubation at room temperature, unbound dye was washed out with 1% (v/v) acetic acid, whereas bound dye was solubilized with 10 mM unbuffered TRIS (Avantor Performance Materials, Gliwice, Poland) solution. […] After additional 30 min, absorbance was read using a Biotek Hybrid H4 reader (BioTek Instruments, USA) at 540 nm wavelength.
For assay [2], the system named is HT-29. Briefly: Long-term colony formation assay. The settings on record: treated at IC50 dose, colonies after 2 weeks; FIGS. 1A and 1B. It is filed as cell-based, human. As for the experimental part:
To confirm, anticancer effects, selected compounds of invention, PDIA1 inhibitors were tested in long-term colony formation assay. For long-term colony formation assay the human colorectal carcinoma cell lines Caco-2 and HT-29 were maintained as follows: HT-29 in RPMI-1640 with HEPES + OPTI-MEM (1:1) and Caco-2 in Eagle’s medium (all from IIET, Wroclaw, Poland) both culture media were supplemented with 2 mM L-glutamine, 1 mM sodium pyruvate (both from Sigma-Aldrich Chemie GmbH, Steinheim, Germany), fetal bovine serum: 5% HT-29 (GE Healthcare), 20% Caco-2 (Sigma-Aldrich Chemie GmbH, Steinheim, Germany), 100 U/ml penicillin, 100 µg/ml streptomycin (both from Polfa Tarchomin S.A., Warsaw, Poland). All cell lines were grown at 37° C. in a humidified atmosphere with 5% CO2. […] The viable cells were counted using a hemocytometer (trypan blue exclusion method) and seeded in triplicates at a density of 5 × 10^2 cells/3 ml and 2.5 × 10^2 cells/3 ml (9.5 cm^2) for Caco-2 and HT-29 respectively. […] After 2 weeks, the colonies were fixed and stained with 1% crystal violet/ethanol (Sigma-Aldrich), documented with Sony Alpha 300 camera (Sony), and counted manually using ImageJ 1.47 software (National Institutes of Health, Bethesda, MD, USA). Surviving fraction (SF) was calculated. […]

Assay [3] concerns HT-29. Briefly: MTT antiproliferative assay, 72 h. It is filed as cell-based. The settings on record: Homo sapiens, 72 hours exposition, read-out: IC50 [µg/ml] HT-29 normal. The procedure: (§1) Anticancer activity of PDI A1-inhibitors has been also tested in vitro in antiproliferative essay in normoxic and hypoxic conditions as well in estrogen-stimulated cancer cells. In the experiment, cells were seeded on 96-well plates (Sarstedt, Germany) in appropriate culture medium at a density of 10^5 cells/mL 24 h before adding the tested compounds. Cells were treated with each compound in four concentrations in the range 0.1-100 ug/mL. […] After 72 h of compound treatment at 37° C., 5 % CO2 humid atmosphere and in wo different oxygen level conditions: 21% - normal and <1% - hypoxia. In some experiments, the MDA-MB-231 and MCF-7 cells were seeded with or without 200 nM estradiol and after 24 h the tested compounds were added. A previously described sulforhodamine B antiproliferative assay was used with minor modifications (Skehan P et al., 1990). Briefly, cells were fixed with 50 µL/well of 50% (w/v) trichloroacetic acid (Avantor Performance Materials, Gliwice, Poland). After 1 h incubation, plates were washed several times with tap water and 50 µL of 0.4% (w/v) solution of sulforhodamine B (Sigma-Aldrich, Germany) in 1% (v/v) acetic acid (Avantor Performance Materials, Gliwice, Poland) was added to each well. After 30 min incubation at room temperature, unbound dye was washed out with 1% (v/v) acetic acid, whereas bound dye was solubilized with 10 mM unbuffered TRIS (Avantor Performance Materials, Gliwice, Poland) solution. The entire procedure was performed using a BioTek EL-406 washing station (BioTek Instruments, USA). After additional 30 min, absorbance was read using a Biotek Hybrid H4 reader (BioTek Instruments, USA) at 540 nm wavelength. MTT assay was used alternatively for HL-60 cell line and in the experiment in which estrogens are added (specified in the table legend). Absorbance was measured using a Biotek Hybrid H4 reader at 570 nm wavelength for MTT assay.
(§2) Compounds at each concentration were tested in triplicate in a single experiment and each experiment was repeated at least three times independently.
(§3) Results of in vitro antiproliferative effects are shown in Table 3 and Table 4 and are presented as mean IC50 ± SD calculated using the Prolab-3 system based on Cheburator 0.4 software.
(§4) Statistical analysis: Unpaired t test. *p<0.05 as compared to appropriate cells not pretreated with estradiol. MTT assay was used for antiproliferative activity assessment.
(Tetrazolium assays rely on reduction of a dye to a coloured formazan, in cell work by metabolically active cells.)

Assay [4] relates to HL-60. In words: MTT antiproliferative assay, 72 h. It is filed as cell-based. The settings on record: Homo sapiens, 72 hours exposition, read-out: IC50 [µg/ml] HL-60 normal. The procedure: as §1, §2, §3, §4

Turning to `COC(=O)C1CN1S(=O)(=O)c1ccccc1` (stereo not shown) [Compound C-3251, Methyl 1-(benzenesulfonyl)aziridine-2-carboxylate], the IC50 in assay [1] amounted to 3.4 ± 0.2 µg/mL (≈ 14.1 µM); in assay [3], 37.2 ± 8.4 µg/mL (≈ 154 µM); in assay [4], 1.5 ± 0.1 µg/mL (≈ 6.22 µM). Besides, the “Inhibition of long-term colonies formation, HT-29” value in assay [2] is on record as “much potent towards HT-29 than CaCo-2 cell line”.
